In brackets after ≈: the same amount, converted by molar mass. Entries after “also recorded” stand apart in the source; their conditions may differ. Read-outs that look alike come from different tables or passages of the source.
How the values were obtained:
[1] = biological target: T1, NR1/NR2C receptors (Rattus norvegicus, UniProt Q00961); test: Whole-cell voltage-clamp, NR1/NR2C in HEK 293 cells; type: cell-based
[2] = biological target: NR1/NR2C receptors (Rattus norvegicus, UniProt P35439+Q00961); test: as above; type: cell-based
Sequence of NR1/NR2C receptors (Rattus norvegicus, UniProt P35439+Q00961) (Q00961 20-1237, other chains not shown): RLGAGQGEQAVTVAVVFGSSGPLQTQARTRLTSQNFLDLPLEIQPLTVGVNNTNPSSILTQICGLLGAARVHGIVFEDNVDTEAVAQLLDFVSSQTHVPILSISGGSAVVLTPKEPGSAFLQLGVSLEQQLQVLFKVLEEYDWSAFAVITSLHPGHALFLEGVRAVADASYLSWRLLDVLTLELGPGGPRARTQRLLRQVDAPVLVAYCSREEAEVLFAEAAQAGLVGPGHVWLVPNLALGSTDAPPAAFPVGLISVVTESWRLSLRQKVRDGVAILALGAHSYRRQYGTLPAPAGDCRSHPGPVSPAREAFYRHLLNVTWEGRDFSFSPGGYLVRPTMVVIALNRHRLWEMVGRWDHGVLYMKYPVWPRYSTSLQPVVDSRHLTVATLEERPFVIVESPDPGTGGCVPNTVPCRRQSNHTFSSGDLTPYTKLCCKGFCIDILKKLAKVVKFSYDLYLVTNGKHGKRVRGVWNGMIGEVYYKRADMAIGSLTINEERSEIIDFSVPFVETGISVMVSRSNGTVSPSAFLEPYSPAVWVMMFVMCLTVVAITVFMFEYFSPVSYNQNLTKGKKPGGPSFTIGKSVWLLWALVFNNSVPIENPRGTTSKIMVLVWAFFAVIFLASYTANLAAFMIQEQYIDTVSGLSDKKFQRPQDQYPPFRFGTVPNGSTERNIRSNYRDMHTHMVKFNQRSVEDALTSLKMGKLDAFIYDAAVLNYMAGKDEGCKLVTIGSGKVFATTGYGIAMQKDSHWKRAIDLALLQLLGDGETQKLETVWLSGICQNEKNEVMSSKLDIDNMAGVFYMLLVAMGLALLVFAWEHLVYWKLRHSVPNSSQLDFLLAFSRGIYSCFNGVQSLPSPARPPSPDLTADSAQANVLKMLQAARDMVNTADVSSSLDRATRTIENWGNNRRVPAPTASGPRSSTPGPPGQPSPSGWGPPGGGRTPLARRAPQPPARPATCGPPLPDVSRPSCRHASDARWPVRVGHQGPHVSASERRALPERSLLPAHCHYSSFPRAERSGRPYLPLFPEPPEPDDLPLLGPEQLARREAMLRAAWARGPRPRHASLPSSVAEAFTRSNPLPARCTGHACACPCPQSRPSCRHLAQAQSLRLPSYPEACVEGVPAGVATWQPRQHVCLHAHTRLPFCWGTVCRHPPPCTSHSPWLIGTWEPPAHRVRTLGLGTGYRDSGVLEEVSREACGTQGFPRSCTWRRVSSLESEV

[3] = biological target: T2, NR1/NR2D receptors (Rattus norvegicus, UniProt Q62645); test: Two-electrode voltage-clamp, recombinant NR1/NR2D in Xenopus oocytes; type: cell-based; conditions: for Slope: Control (no CIQ)
T2 sequence (Q62645 28-1323, other chains not shown): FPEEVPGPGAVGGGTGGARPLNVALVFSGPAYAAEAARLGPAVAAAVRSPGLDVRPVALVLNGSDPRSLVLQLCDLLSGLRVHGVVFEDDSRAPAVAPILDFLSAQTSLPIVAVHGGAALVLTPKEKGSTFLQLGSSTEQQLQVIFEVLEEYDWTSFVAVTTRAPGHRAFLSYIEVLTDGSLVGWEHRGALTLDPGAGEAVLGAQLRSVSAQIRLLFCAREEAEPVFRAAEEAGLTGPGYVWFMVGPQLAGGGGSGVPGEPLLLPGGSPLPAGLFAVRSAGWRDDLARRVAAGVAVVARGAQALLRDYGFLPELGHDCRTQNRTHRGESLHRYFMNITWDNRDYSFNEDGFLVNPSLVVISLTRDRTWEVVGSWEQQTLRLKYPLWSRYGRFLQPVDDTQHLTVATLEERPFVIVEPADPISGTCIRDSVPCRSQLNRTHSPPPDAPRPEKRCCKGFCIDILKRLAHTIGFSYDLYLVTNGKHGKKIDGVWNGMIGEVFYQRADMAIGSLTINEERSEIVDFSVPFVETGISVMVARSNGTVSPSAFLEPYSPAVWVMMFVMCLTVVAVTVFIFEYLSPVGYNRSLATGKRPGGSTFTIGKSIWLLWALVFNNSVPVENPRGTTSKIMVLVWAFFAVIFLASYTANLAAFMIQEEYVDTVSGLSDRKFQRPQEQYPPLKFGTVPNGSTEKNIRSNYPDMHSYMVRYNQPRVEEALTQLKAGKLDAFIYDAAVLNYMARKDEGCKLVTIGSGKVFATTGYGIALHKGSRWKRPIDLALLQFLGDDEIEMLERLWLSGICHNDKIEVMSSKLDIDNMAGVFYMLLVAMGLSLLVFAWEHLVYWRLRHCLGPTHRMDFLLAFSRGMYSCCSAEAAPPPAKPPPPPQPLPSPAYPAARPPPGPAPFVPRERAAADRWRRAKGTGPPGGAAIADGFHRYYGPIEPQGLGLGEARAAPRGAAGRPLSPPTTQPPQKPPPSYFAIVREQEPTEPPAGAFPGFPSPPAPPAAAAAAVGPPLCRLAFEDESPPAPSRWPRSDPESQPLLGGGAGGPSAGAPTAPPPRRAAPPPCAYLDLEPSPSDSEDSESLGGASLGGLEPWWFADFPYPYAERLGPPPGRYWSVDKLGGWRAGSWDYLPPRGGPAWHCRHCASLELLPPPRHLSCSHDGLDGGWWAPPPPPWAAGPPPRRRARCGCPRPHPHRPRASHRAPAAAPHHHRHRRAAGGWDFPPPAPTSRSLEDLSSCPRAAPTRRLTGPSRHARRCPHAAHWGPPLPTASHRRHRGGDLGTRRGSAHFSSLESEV

[4] = tested on: native NMDA receptors in CA1 hippocampal pyramidal neurons; type: cell-based, rat; conditions: 20 μM CIQ; pressure-applied NMDA and glycine
[5] = tested on: GluR4 receptor; test: Two-electrode voltage-clamp, GluR4 in oocytes; type: cell-based; conditions: 10 μM CIQ, 100 μM glutamate
[6] = tested on: GluR2 receptor; test: Two-electrode voltage-clamp, GluR2 in oocytes; type: cell-based; conditions: 10 μM CIQ, 100 μM glutamate
[7] = tested on: NR1/NR2B receptors; test: Two-electrode voltage-clamp, recombinant NR1/NR2B in Xenopus oocytes; type: cell-based, rat
[8] = tested on: NR1/NR2B receptors; test: Whole-cell voltage-clamp, NR1/NR2B in HEK 293 cells; type: cell-based, rat; conditions: 20 μM CIQ
[9] = tested on: NMDA receptors containing the NR2C or NR2D subunit; test: Potentiation of NR2C- or NR2D-containing NMDA receptors; type: cell-based; conditions: read-out: EC50 for enhancement of receptor responses; abstract summary value
[10] = tested on: native NMDA receptors in subthalamic neurons; type: cell-based, rat
[11] = tested on: NR1/NR2A* receptors; test: Oocyte recording of NR1/NR2A*; conditions: oocytes; triheteromeric recording conditions
[12] = tested on: GluR3 receptor; test: Two-electrode voltage-clamp, GluR3 in oocytes; type: cell-based; conditions: 10 μM CIQ, 100 μM glutamate
[13] = tested on: NR1/NR2A*/NR2D triheteromeric receptors; test: Triheteromeric NMDA receptors in oocytes, NR1/NR2A*/NR2D; conditions: 10 μM CIQ; 10 mM glutamate, 100 μM glycine, 1 mM Mg2+
[14] = tested on: NR1/NR2A receptors; test: Two-electrode voltage-clamp, recombinant NR1/NR2A in Xenopus oocytes; type: cell-based, rat
[15] = tested on: 2A-(2D L+S1M1c) chimeric receptor; test: Oocyte recording of chimera 2A-; type: cell-based, rat; conditions: 10 μM CIQ plus 100 μM glutamate and 30 μM glycine
[16] = tested on: 2A-(2D L+S1M1) chimeric receptor; test: Oocyte recording of chimera 2A-; type: cell-based, rat; conditions: 10 μM CIQ plus 100 μM glutamate and 30 μM glycine
[17] = tested on: NR1/NR2D(T592I); test: Oocyte recording of mutant NR1/NR2D; type: cell-based, rat; conditions: oocytes
[18] = tested on: NR2A with ATD-S1 linker (L) of NR2D; test: Oocyte recording of NR2A with NR2D ATD-S1 linker; type: cell-based, rat; conditions: oocytes
[19] = tested on: AMPA (GluR1) receptor; test: Two-electrode voltage-clamp, AMPA receptor GluR1 in oocytes; type: cell-based; conditions: 10 μM CIQ, 100 μM glutamate
[20] = tested on: GluR5 receptor; test: Two-electrode voltage-clamp, GluR5 in oocytes; type: cell-based; conditions: 10 μM CIQ; 100 μM glutamate; concanavalin-A pretreated oocytes
[21] = tested on: NR1/NR2A receptors; test: Whole-cell voltage-clamp, NR1/NR2A in HEK 293 cells; type: cell-based, rat; conditions: concentration-effect relationship
[22] = biological target: T2, NR1/NR2D receptors; test: Single channel recording, outside-out patches with NR1/NR2D; type: cell-based; conditions: 10 μM CIQ
[23] = tested on: 2D-(2A L) chimeric receptor; test: Oocyte recording of chimera 2D-; type: cell-based, rat; conditions: oocytes
[24] = tested on: NR2A-(2D L+M1e) chimeric receptor; test: Oocyte recording of chimera NR2A-; type: cell-based, rat; conditions: 10 μM CIQ plus 100 μM glutamate and 30 μM glycine
[25] = tested on: 2D-(2A ATD+L) chimeric receptor; test: Oocyte recording of chimera 2D-; type: cell-based, rat; conditions: oocytes
[26] = tested on: NR2A with residues 590-594 of NR2D; test: Oocyte recording of NR2A with NR2D residues 590-594 alone; type: cell-based, rat; conditions: oocytes
[27] = tested on: NR1/NR2A*/NR2C triheteromeric receptors; test: Triheteromeric NMDA receptors in oocytes, NR1/NR2A*/NR2C; conditions: 10 μM CIQ; 10 mM glutamate, 100 μM glycine, 1 mM Mg2+
[28] = Maximum solubility by nephelometer; type: physicochemical; conditions: kinetic from dmso stock
[29] = tested on: NR2A(I567T) with linker (L) between NR2D ATD and S1; test: Oocyte recording of NR2A; type: cell-based, rat; conditions: 10 μM CIQ; oocytes
[30] = tested on: 2A-(2D L+S1M1b) chimeric receptor; test: Oocyte recording of chimera 2A-; type: cell-based, rat; conditions: 10 μM CIQ plus 100 μM glutamate and 30 μM glycine
[31] = tested on: 2A-(2D L+S1M1M2M3S2) chimeric receptor; test: Oocyte recording of chimera 2A-; type: cell-based, rat; conditions: 10 μM CIQ plus 100 μM glutamate and 30 μM glycine
[32] = tested on: NR1/NR2A*/NR2B triheteromeric receptors; test: Triheteromeric NMDA receptors in oocytes, NR1/NR2A*/NR2B; conditions: 10 μM CIQ; 10 mM glutamate, 100 μM glycine, 1 mM Mg2+
[33] = biological target: T1, NR1/NR2C receptors; test: Two-electrode voltage-clamp, recombinant NR1/NR2C in Xenopus oocytes; type: cell-based; conditions: for Slope: Control (no CIQ)
[34] = tested on: kainate (GluR6) receptor; test: Two-electrode voltage-clamp, kainate receptor GluR6 in oocytes; type: cell-based; conditions: 10 μM CIQ; 100 μM glutamate; concanavalin-A pretreated oocytes
[35] = biological target: T2, NR1/NR2D receptors; test: Whole-cell voltage-clamp, NR1/NR2D in HEK 293 cells; type: cell-based
[36] = 10 μM CIQ in 100 μM glutamate and 30 μM glycine, HEK 293, 23°C
[37] = HEK 293 cells, single exponential
[38] = following pre-application of CIQ, HEK 293
[39] = 10 μM CIQ plus 100 μM glutamate and 30 μM glycine
[40] = read-out: agonist EC50, + 20 μM CIQ
[41] = read-out: agonist EC50, Control (no CIQ)

T1 sequence (Q00961 20-1237, other chains not shown): as the sequence (Q00961 20-1237, other chains not shown) above

COc1ccc(OCC2c3cc(OC)c(OC)cc3CCN2C(=O)c2cccc(Cl)c2)cc1 (stereo not drawn) [CIQ, (3-chlorophenyl)(6,7-dimethoxy-1-((4-methoxyphenoxy)methyl)-3,4-dihydroisoquinolin-2(1H)-yl)methanone]
response compared to control [1, 36]: 180% | maximal potentiation ([1]; HEK 293 cells): 180% | de-potentiation time constant tau [1, 37]: 4.0 ± 0.7 s | 10-90% rise time of receptor response [1, 38]: 9 ± 1 ms | EC50 [2]: 1700 nM | response in the presence of CIQ vs control [3, 39]: significantly different than in control | potentiation of NMDA-activated response ([3]; 100 μM NMDA and 30 μM glycine): 205 ± 5% | effect of CIQ alone (no agonist) ([3]; CIQ alone): no effect | potentiation of receptor response, % of control ([3]; CIQ dissolved in 2-hydroxypropyl-beta-cyclodextrin solution (1% w/v), no DMSO): 144 ± 3 % of control | maximal potentiation ([3]; response without CIQ = 100%): 211 ± 7% | potentiation of NMDA-activated responses [4]: did not potentiate | effect on receptor response [5]: not significantly different than control | effect on receptor response [6]: not significantly different than control | effect on receptor response ([7]; 10 μM CIQ): did not alter; also recorded: without affecting | potentiation of NMDA-activated response ([7]; 100 μM NMDA plus 30 μM glycine): did not potentiate | reduction in the response [8]: 25% | EC50 [9]: 3000 nM | potentiation of NMDA-activated responses compared to control ([10]; 20 μM CIQ bath applied, −60 mV, 0.2 mM Mg2+): 230 ± 29% | NMDA-activated response after wash, of control amplitude ([10]; after washout of 20 μM CIQ): 102 ± 11% | effect on receptor response [11]: no detectable effect; also recorded: not potentiated | effect on receptor response [12]: not significantly different than control | effect on triheteromeric receptor response [13]: significantly potentiated | effect on receptor response ([14]; 10 μM CIQ): did not alter; also recorded: without affecting | potentiation of NMDA-activated response ([14]; 100 μM NMDA plus 30 μM glycine): did not potentiate | CIQ sensitivity of chimeric receptor [15]: CIQ sensitivity is observed | CIQ sensitivity of chimeric receptor [16]: CIQ sensitivity is observed | CIQ potentiation of mutant receptor [17]: completely abolished; also recorded: no longer potentiated | CIQ activity at chimeric receptor [18]: did not show any activity | effect on receptor response [19]: did not alter; also recorded: not significantly different than control | effect on receptor response [20]: not significantly different than control | effect on receptor response [21]: no effect | effect on the reversal potential [22]: no detectable effect | mean shut time, % of control [22]: 75 ± 8 % of control | closed duration area, component 1 ([22]; composite of 6 patches): 37 | closed duration area, component 2 ([22]; composite of 6 patches): 18 | closed duration area, component 3 ([22]; composite of 6 patches): 12 | closed duration area, component 4 ([22]; composite of 6 patches): 18 | closed duration area, component 5 ([22]; composite of 6 patches): 15 | closed duration area, component 6 ([22]; composite of 6 patches): 0.75 | closed duration time constant, component 1 ([22]; composite of 6 patches): 0.026 ms | closed duration time constant, component 2 ([22]; composite of 6 patches): 0.23 ms | closed duration time constant, component 3 ([22]; composite of 6 patches): 0.73 ms | closed duration time constant, component 4 ([22]; composite of 6 patches): 3.4 ms | closed duration time constant, component 5 ([22]; composite of 6 patches): 12 ms | closed duration time constant, component 6 ([22]; composite of 6 patches): 39 ms | open period time constant 1, composite distribution ([22]; composite of 6 patches): 0.036 ms | open period time constant 2, composite distribution ([22]; composite of 6 patches): 0.63 ms | change of CIQ potentiation vs NR2D [23]: did not significantly alter | CIQ sensitivity of chimeric receptor [24]: potentiated; also recorded: CIQ sensitivity is observed | change of CIQ potentiation vs NR2D [25]: attenuated; also recorded: reduced level of potentiation | CIQ activity at chimeric receptor [26]: did not show any activity | effect on triheteromeric receptor response [27]: significantly potentiated | solubility [28]: 20 µM (≈ 9.36 µg/mL) | potentiation of mutant receptor response [29]: 135 ± 5% | CIQ sensitivity of chimeric receptor [30]: CIQ sensitivity is observed | CIQ sensitivity of chimeric receptor [31]: CIQ sensitivity is observed | effect on triheteromeric receptor response [32]: not potentiated; also recorded: no effect | response in the presence of CIQ vs control [33, 39]: significantly different than in control | potentiation of NMDA-activated response ([33]; 100 μM NMDA and 30 μM glycine): 233 ± 13% | effect of CIQ alone (no agonist) ([33]; CIQ alone): no effect | maximal potentiation ([33]; response without CIQ = 100%): 197 ± 20% | effect on receptor response [34]: did not alter; also recorded: not significantly different than control | response compared to control [35, 36]: 180% | potentiation of response to NMDA at 33°C ([35]; 10 μM CIQ, 33°C, HEK 293 cells): 200±20% | maximal potentiation ([35]; HEK 293 cells): 180% | de-potentiation time constant tau [35, 37]: 6.5 ± 0.7 s | 10-90% rise time of receptor response [35, 38]: 15 ± 2 ms

N[C@@H](CCC(=O)O)C(=O)O [Glutamate, reference compound]
Slope [3]: 1.5 | EC50 [3, 40]: 240 ± 20 nM | EC50 [3, 41]: 300 ± 30 nM | Slope [33]: 1.5 | EC50 [33, 40]: 620 ± 40 nM | EC50 [33, 41]: 740 ± 60 nM

NCC(=O)O [Glycine, reference compound]
Slope [3]: 1.5 | Slope [33]: 1.5

Reference: article PMC3113701 (Nature communications, 2010)
